From patent US6979686B1, “Substituted pyrazoles as p38 kinase inhibitors” (Pharmacia Corporation, priority 2001, dated 2005) come the findings set out here.

pIC50: −log10 of the molar value. Where only a bound is given, the exact number is not on record here.

This assay deals with T1, human p38 kinase alpha (Homo sapiens, UniProt Q16539).
T1 construct: GST (N, cleaved yes); made in house; host or cells: E. coli DH10B
T1 sequence (Q16539 whole entry): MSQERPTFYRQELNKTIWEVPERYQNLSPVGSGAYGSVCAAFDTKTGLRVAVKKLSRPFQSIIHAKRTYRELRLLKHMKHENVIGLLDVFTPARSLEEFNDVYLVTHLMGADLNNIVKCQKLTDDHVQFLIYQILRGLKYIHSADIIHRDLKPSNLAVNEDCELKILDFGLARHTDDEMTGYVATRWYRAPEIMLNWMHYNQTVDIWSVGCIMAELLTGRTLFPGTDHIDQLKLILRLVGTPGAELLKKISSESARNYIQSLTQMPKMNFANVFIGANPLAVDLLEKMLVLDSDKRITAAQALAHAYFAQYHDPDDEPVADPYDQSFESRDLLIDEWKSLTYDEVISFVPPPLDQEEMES
The assay can be described thus: p38 kinase in vitro assay, phosphorylation of biotinylated PHAS-I with 32P-ATP. The assay is classed as biochemical. The conditions noted are these: in vitro P38-alpha kinase; read-out: P38 alpha kinase IC50.
In the case of `O=C(c1ccc(Cl)c(Cl)c1)N1CCC(c2[nH]nc(-c3ccc(F)cc3)c2-c2ccncc2)CC1` [Example B-1418], the pIC50 was 6.00. Next, `O=C(c1cc(Cl)cc(Cl)c1)N1CCC(c2[nH]nc(-c3ccc(F)cc3)c2-c2ccncc2)CC1` [Example B-1419]: 6.52. As for `CCC(=O)N1CCC(c2[nH]nc(-c3ccc(F)cc3)c2-c2ccncc2)CC1` [Example B-1420], the figure is above 7.00. Next, `CC(C)(C)C(=O)N1CCC(c2[nH]nc(-c3ccc(F)cc3)c2-c2ccncc2)CC1` [Example B-1421]: 7.85. Consider `CCOC(=O)N1CCC(c2[nH]nc(-c3ccc(F)cc3)c2-c2ccncc2)CC1` [Example B-1422], for which the pIC50 was 6.24. Next, `CCCOC(=O)N1CCC(c2[nH]nc(-c3ccc(F)cc3)c2-c2ccncc2)CC1` [Example B-1423]: 5.80. As for `CC(C)COC(=O)N1CCC(c2[nH]nc(-c3ccc(F)cc3)c2-c2ccncc2)CC1` [Example B-1424], the figure is 6.07. As for `CC(C)OC(=O)N1CCC(c2[nH]nc(-c3ccc(F)cc3)c2-c2ccncc2)CC1` [Example B-1425], the figure is 7.05; as for `C=CCOC(=O)N1CCC(c2[nH]nc(-c3ccc(F)cc3)c2-c2ccncc2)CC1` [Example B-1426], 6.72; as for `C#CCOC(=O)N1CCC(c2[nH]nc(-c3ccc(F)cc3)c2-c2ccncc2)CC1` [Example B-1427], above 7.00.

Turning to `O=C(OCc1ccccc1)N1CCC(c2[nH]nc(-c3ccc(F)cc3)c2-c2ccncc2)CC1` [Example B-1428], the pIC50 is above 7.00.

Regarding `O=C(N1CCC(c2[nH]nc(-c3ccc(F)cc3)c2-c2ccncc2)CC1)C(F)(F)F` [Example B-1429], the pIC50 was above 7.00. Next, `CCCCS(=O)(=O)N1CCC(c2[nH]nc(-c3ccc(F)cc3)c2-c2ccncc2)CC1` [Example B-1430]: 6.12. As to `CCCS(=O)(=O)N1CCC(c2[nH]nc(-c3ccc(F)cc3)c2-c2ccncc2)CC1` [Example B-1431], the pIC50 is 6.44. As to `Cc1noc(C)c1S(=O)(=O)N1CCC(c2[nH]nc(-c3ccc(F)cc3)c2-c2ccncc2)CC1` [Example B-1435], the pIC50 was 5.74. Next, `O=S(=O)(c1cccc2nonc12)N1CCC(c2[nH]nc(-c3ccc(F)cc3)c2-c2ccncc2)CC1` [Example B-1436]: 6.00. As for `O=S(=O)(c1cccs1)N1CCC(c2[nH]nc(-c3ccc(F)cc3)c2-c2ccncc2)CC1` [Example B-1437], the pIC50 is 6.52.

For the molecule `O=S(=O)(c1ccc(Cl)s1)N1CCC(c2[nH]nc(-c3ccc(F)cc3)c2-c2ccncc2)CC1` [Example B-1438], the pIC50 was 5.70. `O=S(=O)(c1ccc(-c2ccccn2)s1)N1CCC(c2[nH]nc(-c3ccc(F)cc3)c2-c2ccncc2)CC1` [Example B-1439]: the pIC50 was 5.77. As for `O=S(=O)(c1ccccc1)c1ccc(S(=O)(=O)N2CCC(c3[nH]nc(-c4ccc(F)cc4)c3-c3ccncc3)CC2)s1` [Example B-1441], the pIC50 is 5.71. Turning to `O=S(=O)(c1cccc2cnccc12)N1CCC(c2[nH]nc(-c3ccc(F)cc3)c2-c2ccncc2)CC1` [Example B-1443], the pIC50 was 7.85.

As to `COc1ccc(Cl)cc1S(=O)(=O)N1CCC(c2[nH]nc(-c3ccc(F)cc3)c2-c2ccncc2)CC1` [Example B-1445], the pIC50 was 6.37. As for `COc1ccc(C)c(S(=O)(=O)N2CCC(c3[nH]nc(-c4ccc(F)cc4)c3-c3ccncc3)CC2)c1` [Example B-1447], the figure is 6.30; as for `O=S(=O)(c1ccc(Cl)cc1Cl)N1CCC(c2[nH]nc(-c3ccc(F)cc3)c2-c2ccncc2)CC1` [Example B-1449], 5.79. As for `O=S(=O)(c1cc(Cl)ccc1Cl)N1CCC(c2[nH]nc(-c3ccc(F)cc3)c2-c2ccncc2)CC1` [Example B-1450], the figure is 5.68; as for `O=S(=O)(c1c(Cl)cccc1Cl)N1CCC(c2[nH]nc(-c3ccc(F)cc3)c2-c2ccncc2)CC1` [Example B-1451], 5.54. As for `O=S(=O)(c1ccc(Cl)c(Cl)c1)N1CCC(c2[nH]nc(-c3ccc(F)cc3)c2-c2ccncc2)CC1` [Example B-1452], the figure is 5.62. As for `O=S(=O)(c1cc(Cl)cc(Cl)c1)N1CCC(c2[nH]nc(-c3ccc(F)cc3)c2-c2ccncc2)CC1` [Example B-1453], the pIC50 was 5.60. Next, `O=S(=O)(c1ccc(F)cc1F)N1CCC(c2[nH]nc(-c3ccc(F)cc3)c2-c2ccncc2)CC1` [Example B-1454]: 5.80; `O=S(=O)(c1ccccc1Cl)N1CCC(c2[nH]nc(-c3ccc(F)cc3)c2-c2ccncc2)CC1` [Example B-1457]: 6.37. As for `O=S(=O)(c1ccccc1Br)N1CCC(c2[nH]nc(-c3ccc(F)cc3)c2-c2ccncc2)CC1` [Example B-1458], the figure is 6.02; as for `Cc1ccccc1S(=O)(=O)N1CCC(c2[nH]nc(-c3ccc(F)cc3)c2-c2ccncc2)CC1` [Example B-1459], 6.17; as for `N#Cc1ccccc1S(=O)(=O)N1CCC(c2[nH]nc(-c3ccc(F)cc3)c2-c2ccncc2)CC1` [Example B-1461], 6.40. Next, `CS(=O)(=O)c1ccccc1S(=O)(=O)N1CCC(c2[nH]nc(-c3ccc(F)cc3)c2-c2ccncc2)CC1` [Example B-1462]: 6.66. With `O=S(=O)(c1ccccc1OC(F)(F)F)N1CCC(c2[nH]nc(-c3ccc(F)cc3)c2-c2ccncc2)CC1` [Example B-1463], the pIC50 is 5.63.

As to `O=S(=O)(c1cccc(F)c1)N1CCC(c2[nH]nc(-c3ccc(F)cc3)c2-c2ccncc2)CC1` [Example B-1464], the pIC50 was 5.93.

Turning to `O=S(=O)(c1ccc(Br)cc1)N1CCC(c2[nH]nc(-c3ccc(F)cc3)c2-c2ccncc2)CC1` [Example B-1472], the pIC50 was 6.03.

As for `CS(=O)(=O)c1ccc(S(=O)(=O)N2CCC(c3[nH]nc(-c4ccc(F)cc4)c3-c3ccncc3)CC2)cc1` [Example B-1476], the pIC50 was 7.33. Next, `O=S(=O)(c1ccc(OC(F)(F)F)cc1)N1CCC(c2[nH]nc(-c3ccc(F)cc3)c2-c2ccncc2)CC1` [Example B-1477]: 5.60; `Cc1c(-c2ccncc2)c(-c2ccc(F)cc2)nn1CC(=O)NCCc1ccc(F)cc1` [Example B-2271]: 6.03; `CCOCCCNC(=O)Cn1nc(-c2ccc(F)cc2)c(-c2ccncc2)c1C` [Example B-2273]: 5.72.

`Cc1c(-c2ccncc2)c(-c2ccc(F)cc2)nn1CC(=O)NCc1ccccc1Cl` [Example B-2274]: the pIC50 was 6.59. Next, `Cc1c(-c2ccncc2)c(-c2ccc(F)cc2)nn1CC(=O)NCc1ccc(N(C)C)cc1` [Example B-2275]: 5.67; `Cc1c(-c2ccncc2)c(-c2ccc(F)cc2)nn1CC(=O)NCC1CC1` [Example B-2276]: 4.94. As for `Cc1c(-c2ccncc2)c(-c2ccc(F)cc2)nn1CC(=O)NCC(c1ccccc1)c1ccccc1` [Example B-2277], the figure is 4.83.

Take `COc1ccc(CNC(=O)Cn2nc(-c3ccc(F)cc3)c(-c3ccncc3)c2C)c(OC)c1` [Example B-2278]: the pIC50 was 6.10.

With `Cc1c(-c2ccncc2)c(-c2ccc(F)cc2)nn1CC(=O)NCCCN1CCCC1=O` [Example B-2280], the pIC50 is 6.40.

As to `Cc1c(-c2ccncc2)c(-c2ccc(F)cc2)nn1CC(=O)NCc1ccccn1` [Example B-2281], the pIC50 was 6.09.
